Patent US20210254056A1, “IDENTIFICATION AND TARGETED MODULATION OF GENE SIGNALING NETWORKS” (CAMP4 THERAPEUTICS CORPORATION, priority 2017, published 2021)

Test system: hepatocytes
Assay: RNA-seq of hepatocytes treated with Phase III failure compounds
Settings: hepatocytes
Experimental: RNA-seq was performed to determine the effects of the compounds on hepatocytes.
Significance was determined by the criteria of FPKM≥0.5, a log 2(fold-change)≥1, and a […].

## CCC(CC)[C@H](NC(C)=O)[C@@H]1[C@H](O)[C@@H](C(=O)O)C[C@H]1NC(=N)N.O.O.O [peramivir (trihydrate), peramivir]
Gene SLC33A1
  RNA-seq results: SLC33A1: −0.02
Gene SLC35C1
  RNA-seq results, SLC35C1: 0.17
  RNA-seq results: SLC35C1: 0.07
Gene SLC39A4
  RNA-seq results, SLC39A4: 0.31
  RNA-seq results: SLC39A4: 0.32
Gene SLC40A1
  RNA-seq results, SLC40A1: 0.39
  RNA-seq results: SLC40A1: −0.18
Gene SLC46A1
  RNA-seq results, SLC46A1: 0.08
  RNA-seq results: SLC46A1: 0.17
Gene SLC51A
  RNA-seq results, SLC51A: 0.08
  RNA-seq results: SLC51A: −0.03
Gene SLC51B
  RNA-seq results, SLC51B: 0.29
  RNA-seq results: SLC51B: 0.08
Gene SLCO1B1
  RNA-seq results, SLCO1B1: −0.33
  RNA-seq results: SLCO1B1: −0.23
Gene SLCO4C1
  RNA-seq results, SLCO4C1: −0.39
  RNA-seq results: SLCO4C1: −0.05
Gene SMAD4
  RNA-seq results, SMAD4: −0.2
  RNA-seq results: SMAD4: −0.17
Gene SMARCB1
  RNA-seq results, SMARCB1: 0.11
  RNA-seq results: SMARCB1: −0.19
Gene SNX10
  RNA-seq results, SNX10: −0.36
  RNA-seq results: SNX10: −0.57
Gene SORT1
  RNA-seq results, SORT1: −0.15
  RNA-seq results: SORT1: −0.12
Gene SPP2
  RNA-seq results, SPP2: −0.12
  RNA-seq results: SPP2: −0.17
Gene SPRTN
  RNA-seq results, SPRTN: −0.17
  RNA-seq results: SPRTN: −0.18
Gene ST3GAL5
  RNA-seq results, ST3GAL5: −0.19
  RNA-seq results: ST3GAL5: −0.11
Gene STAT1
  RNA-seq results, STAT1: −0.31
  RNA-seq results: STAT1: −0.45
Gene STEAP3
  RNA-seq results, STEAP3: 0.03
  RNA-seq results: STEAP3: 0.03
Gene STIM1
  RNA-seq results, STIM1: 0.1
  RNA-seq results: STIM1: −0.07
Gene SULT2A1
  RNA-seq results, SULT2A1: 0.65
  RNA-seq results: SULT2A1: −0.07
Gene SUOX
  RNA-seq results, SUOX: −0.18
  RNA-seq results: SUOX: −0.01
Gene TARS2
  RNA-seq results, TARS2: 0.2
  RNA-seq results: TARS2: −0.08
Gene TAT
  RNA-seq results, TAT: −0.56
  RNA-seq results: TAT: 0.16
Gene TCIRG1
  RNA-seq results, TCIRG1: 0.29
  RNA-seq results: TCIRG1: 0.39
Gene TCTN3
  RNA-seq results, TCTN3: −0.04
  RNA-seq results: TCTN3: −0.34
Gene TDO2
  RNA-seq results, TDO2: −0.58
  RNA-seq results: TDO2: −0.14
Gene TF
  RNA-seq results, TF: 0.02
  RNA-seq results: TF: −0.09
Gene TFR2
  RNA-seq results, TFR2: 0.21
  RNA-seq results: TFR2: 0.07
Gene TGFB1
  RNA-seq results, TGFB1: −0.25
  RNA-seq results: TGFB1: −0.16
Gene THPO
  RNA-seq results, THPO: −0.03
  RNA-seq results: THPO: 0.03
Gene THRB
  RNA-seq results, THRB: −0.28
  RNA-seq results: THRB: −0.18
Gene TK2
  RNA-seq results, TK2: 0.12
  RNA-seq results: TK2: 0.15
Gene TMEM67
  RNA-seq results, TMEM67: −0.01
  RNA-seq results: TMEM67: 0.04
Gene TMEM135
  RNA-seq results, TMEM135: −0.13
  RNA-seq results: TMEM135: −0.41
Gene TMEM165
  RNA-seq results, TMEM165: −0.14
  RNA-seq results: TMEM165: −0.17
Gene TMLHE
  RNA-seq results, TMLHE: −0.03
  RNA-seq results: TMLHE: −0.50
Gene TMPRSS6
  RNA-seq results, TMPRSS6: 0.1
  RNA-seq results: TMPRSS6: 0.34
Gene TNFRSF1A
  RNA-seq results, TNFRSF1A: 0.25
  RNA-seq results: TNFRSF1A: −0.13
Gene TNFSF11
  RNA-seq results, TNFSF11: −0.54
  RNA-seq results: TNFSF11: −0.28
Gene TP53
  RNA-seq results, TP53: −0.02
  RNA-seq results: TP53: 0.04
Gene TTC21B
  RNA-seq results, TTC21B: −0.14
  RNA-seq results: TTC21B: −0.28
Gene TTPA
  RNA-seq results, TTPA: −0.46
  RNA-seq results: TTPA: −0.20
Gene TTR
  RNA-seq results, TTR: 0.19
  RNA-seq results: TTR: −0.23
Gene TYMP
  RNA-seq results, TYMP: 0.37
  RNA-seq results: TYMP: 0.37
Gene UBR1
  RNA-seq results, UBR1: −0.38
  RNA-seq results: UBR1: −0.15
Gene UGT1A1
  RNA-seq results, UGT1A1: −0.06
  RNA-seq results: UGT1A1: −0.38
Gene UGT2B28
  RNA-seq results, UGT2B28: 0.09
  RNA-seq results: UGT2B28: 0.41
Gene UNC13D
  RNA-seq results, UNC13D: 0.05
  RNA-seq results: UNC13D: 0.44
Gene UPB1
  RNA-seq results, UPB1: 0.33
  RNA-seq results: UPB1: 0.19
Gene UQCRB
  RNA-seq results, UQCRB: 0.17
  RNA-seq results: UQCRB: −0.18
Gene UROC1
  RNA-seq results, UROC1: −0.25
  RNA-seq results: UROC1: −0.26
Gene UTRN
  RNA-seq results, UTRN: −0.35
  RNA-seq results: UTRN: −0.06
Gene VIPAS39
  RNA-seq results, VIPAS39: 0.05
  RNA-seq results: VIPAS39: −0.08
Gene VLDLR
  RNA-seq results, VLDLR: 0.62
  RNA-seq results: VLDLR: −0.30
Gene VPS13A
  RNA-seq results, VPS13A: −0.28
  RNA-seq results: VPS13A: 0.08
Gene VPS33B
  RNA-seq results, VPS33B: 0.18
  RNA-seq results: VPS33B: 0.13
Gene WAS
  RNA-seq results, WAS: 0.19
  RNA-seq results: WAS: 0.03
Gene WDR35
  RNA-seq results, WDR35: −0.19
  RNA-seq results: WDR35: −0.03
Gene XDH
  RNA-seq results, XDH: 0.28
  RNA-seq results: XDH: 0.17
Gene YARS2
  RNA-seq results, YARS2: 0
  YARS2 expression, RNA-seq result: −0.36
